Data as given in the NIST ThermoML archive (doi:10.1021/je300610y).

Tests used:
[1] = Molar enthalpy of transition or fusion; settings: Crystal; DSC
[2] = Crystal; for vapor or sublimation pressure: Transpiration method; for Normal melting temperature: DTA

CC(C)c1ccc(NC2=NCCC3(CCCCC3)S2)cc1
Settings	Molar enthalpy of transition or fusion [kcal/mol]	Normal melting temperature [°C]
[1]	6.98	–
[2]	–	139.6

[2]
Settings	vapor or sublimation pressure [kPa]
365.15 K	1.98e-05
366.15 K	2.34e-05
369.15 K	3.21e-05
371.15 K	3.7e-05
373.15 K	4.74e-05
375.15 K	5.94e-05
376.15 K	7.14e-05
379.15 K	8.3e-05
381.15 K	0.0001048
383.15 K	0.0001249
385.15 K	0.0001533
386.15 K	0.0001933
388.15 K	0.0001988
390.15 K	0.0002603
393.15 K	0.0003364

Cc1ccc(NC2=NCCC3(CCCCC3)S2)cc1Cl
Settings	Molar enthalpy of transition or fusion [kcal/mol]	Normal melting temperature [°C]
[1]	7.93	–
[2]	–	149.2

[2]
Settings	vapor or sublimation pressure [kPa]
385.15 K	7.9e-06
386.15 K	8.8e-06
387.15 K	1.13e-05
388.15 K	1.22e-05
389.15 K	1.29e-05
391.15 K	1.59e-05
393.15 K	1.79e-05
395.15 K	2.05e-05
396.15 K	2.29e-05
397.15 K	2.95e-05
399.15 K	3.31e-05
401.15 K	3.4e-05
402.15 K	3.75e-05
404.15 K	4.55e-05
405.7 K	5.09e-05
406.4 K	5.34e-05
407.3 K	6.09e-05

FC(F)(F)c1ccc(NC2=NCCC3(CCCCC3)S2)cc1
Settings	Molar enthalpy of transition or fusion [kcal/mol]	Normal melting temperature [°C]
[1]	7.86	–
[2]	–	149.7

[2]
Settings	vapor or sublimation pressure [kPa]
384.15 K	4.95e-05
385.15 K	5.32e-05
386.15 K	5.53e-05
387.15 K	6.2e-05
389.15 K	7.35e-05
390.15 K	8.5e-05
392.15 K	9.41e-05
393.15 K	0.0001076
394.15 K	0.0001185
395.15 K	0.0001376
397.15 K	0.0001497
398.15 K	0.0001884
399.15 K	0.0002215
401.15 K	0.0002241
402.15 K	0.0002762
403.15 K	0.0002858

Brc1ccc(NC2=NCCC3(CCCCC3)S2)cc1 [N-(4-bromophenyl)-1-thia-3-azaspiro[5.5]undec-2-en-2-amine]
Settings	Molar enthalpy of transition or fusion [kcal/mol]	Normal melting temperature [°C]
[1]	10.6	–
[2]	–	175.2

[2]
Settings	vapor or sublimation pressure [kPa]
374.15 K	5.7e-06
375.15 K	7.6e-06
378.15 K	1.05e-05
380.15 K	1.35e-05
385.15 K	1.92e-05
388.15 K	3.2e-05
391.15 K	4.17e-05
393.15 K	5.5e-05
395.15 K	6.74e-05
397.15 K	7.99e-05
399.15 K	9.5e-05
401.15 K	0.0001235
403.15 K	0.0001454
405.15 K	0.0001813
406.15 K	0.0002145
409.15 K	0.000277
411.15 K	0.0003482

Clc1ccc(NC2=NCCC3(CCCCC3)S2)cc1 [N-(4-chlorophenyl)-1-thia-3-azaspiro[5.5]undec-2-en-2-amine]
Settings	Molar enthalpy of transition or fusion [kcal/mol]	Normal melting temperature [°C]
[1]	10	–
[2]	–	162.6

[2]
Settings	vapor or sublimation pressure [kPa]
370.15 K	1.08e-05
372.15 K	1.28e-05
373.15 K	1.3e-05
376.15 K	2e-05
377.15 K	2.79e-05
380.15 K	3.58e-05
383.15 K	5.41e-05
384.15 K	7.05e-05
387.15 K	7.69e-05
389.15 K	8.96e-05
391.15 K	0.0001171
393.15 K	0.0001487
395.15 K	0.0001855
398.15 K	0.0002176
400.15 K	0.0002803
403.15 K	0.0003898

CCc1ccc(NC2=NCCC3(CCCCC3)S2)cc1 [N-(4-ethylphenyl)-1-thia-3-azaspiro[5.5]undec-2-en-2-amine]
Settings	Molar enthalpy of transition or fusion [kcal/mol]	Normal melting temperature [°C]
[1]	10.2	–
[2]	–	139.4

[2]
Settings	vapor or sublimation pressure [kPa]
366.15 K	3.45e-05
367.15 K	4.16e-05
370.15 K	5.31e-05
372.15 K	7.08e-05
374.15 K	8.22e-05
376.15 K	0.0001151
377.15 K	0.0001434
380.15 K	0.0001583
382.15 K	0.0002134
384.15 K	0.0002567
386.15 K	0.000327
387.15 K	0.0003632
390.15 K	0.0004631
392.15 K	0.000642
394.15 K	0.0007981

Cc1ccc(NC2=NCCC3(CCCCC3)S2)cc1 [N-(4-methylphenyl)-1-thia-3-azaspiro[5.5]undec-2-en-2-amine]
Settings	Molar enthalpy of transition or fusion [kcal/mol]	Normal melting temperature [°C]
[1]	7.1	–
[2]	–	128.1

[2]
Settings	vapor or sublimation pressure [kPa]
353.15 K	9.4e-06
355.15 K	1.29e-05
356.15 K	1.58e-05
360.15 K	2.24e-05
363.15 K	3.02e-05
365.15 K	3.66e-05
366.15 K	4.54e-05
369.15 K	6.73e-05
372.15 K	9.76e-05
375.15 K	0.0001314
376.15 K	0.0001366
377.15 K	0.0001547
378.15 K	0.0001852
380.15 K	0.0002336
384.15 K	0.0003508

c1ccc(NC2=NCCC3(CCCCC3)S2)cc1 [N-phenyl-1-thia-3-azaspiro[5.5]undec-2-en-2-amine]
Settings	Molar enthalpy of transition or fusion [kcal/mol]	Normal melting temperature [°C]
[1]	5.16	–
[2]	–	113.4

[2]
Settings	vapor or sublimation pressure [kPa]
342.15 K	6.9e-06
343.15 K	8.2e-06
345.15 K	1.01e-05
347.15 K	1.32e-05
349.15 K	1.47e-05
350.15 K	1.8e-05
352.15 K	2.39e-05
355.15 K	3.14e-05
357.15 K	4.42e-05
360.15 K	6.22e-05
361.15 K	6.34e-05
362.15 K	9.1e-05
365.15 K	0.0001035
367.15 K	0.0001298
368.15 K	0.0001351
369.15 K	0.0001541
